Paper PMC11243327, “Design, Synthesis, Antitumor, and Antiplasmodial Evaluation of New 7-Chloroquinoline–Benzimidazole Hybrids” (Molecules, 2024)
Like-named read-outs stand apart in the source and are kept apart here.

Columns and labels:
[1] = system: P. falciparum Dd2 (multiresistant), erythrocytic stage; experiment: Antiplasmodial HRP2 assay, PfDd2; format: cell-based, Plasmodium falciparum; conditions: Plasmodium falciparum, DD2, 72 h; chloroquine-resistant strain, three days incubation, HRP2-ELISA, mean ± SD, n ≥ 2; read-out: IC50 PfDd2
Experimental: (§1) Method used to evaluate the antiplasmodial activity of quinoline–benzimidazole hybrids against two P. falciparum strains, chloroquine-sensitive (Pf3D7) and chloroquine-resistant (PfDd2), was previously described. […] Chloroquine was used as a positive control.
(§2) In brief, 96-well plates were pre-coated with the tested compounds at 1:3 dilution before ring-stage parasites were added to the complete culture medium at a hematocrit of 1.5% and a parasitemia of 0.05%. […] All compounds were analyzed in duplicate in at least two independent experiments. The IC50 was determined by nonlinear regression analysis of the logarithmic concentration-response curves using the drc package v3.0-1 of R v4.1.0 [56].

[2] = system: MRC-5 (human fetal lung fibroblasts); experiment: Antiproliferative MTT assay, MRC-5; format: cell-based; conditions: Homo sapiens, MRC5, non-tumor cell line, 72 h, mean ± SD of three experiments
Experimental: (§3) The effect of the new synthesized compounds was tested on five human tumor cell lines, HeLa (human cervical adenocarcinoma; from ATCC), CaCo-2 (human colorectal adenocarcinoma), HL-60 (acute promyelocytic leukemia), HuT78 (T-cell lymphoma), and THP-1 (acute monocytic leukemia), as well as one non-tumor cell line, MRC-5 (human fetal lung fibroblasts). The MRC-5 cells were used between 24 and 26 passages. The cells were cultured in two different types of media: DMEM (Gibco Thermo Fisher Scinetific Inc., Runcorn, UK) and RPMI 1640 (Gibco, Thermo Fisher Scinetific Inc., UK). Both media were supplemented with 2 mM glutamine, fetal bovine serum (10%; heat inactivated), and antibiotics (100 U penicillin and 0.1 mg streptomycin). RPMI 1640 was additionally supplemented with 10 mM HEPES and 1 mM sodium pyruvate. Cells growing in a monolayer were cultured in DMEM, while cells growing in suspension were cultured in RPMI 1640. Cells were grown in humidified atmosphere under the conditions of 37 °C/5% CO2 gas in a CO2 incubator (IGO 150 CELLlife^TM, JOUAN, Thermo Fisher Scientific, Waltham, MA, USA).
(§4) Growth-inhibitory activity was assessed using a slightly modified procedure based on the National Cancer Institute’s protocol. Briefly, cells were seeded in 96-well microtiter plates and incubated for 24 h. They were then treated with 10^−7 to 10^−4 M concentrations of the tested compounds for an additional 72 h. After the treatment period, the effects of the tested compounds on the growth rate of the cells were examined using the MTT assay. Absorbance was measured at 595 nm using a microplate reader. The IC50 value, which represents a 50% inhibition of cell growth, and QC calculation were performed using the GraphPadPrism software (La Jolla, USA), v. 5.03. and Excel software, Office 365. The selectivity index was calculated according to the following formula: SI=IC50 value of normal cell line/IC50 value of cancer cell line
(§5) The effect of each concentration was analyzed by plotting the logarithm of the concentration of the evaluated compound against the corresponding percentage inhibition value using least squares.

HuT78 (T-cell lymphoma) = experiment: Antiproliferative MTT assay, Hut78; format: cell-based, human; conditions: Homo sapiens, HuT78, 72 h, mean ± SD of three experiments
Experimental: as §3, §4, §5

[3] = system: THP-1 (acute monocytic leukemia); experiment: Antiproliferative MTT assay, THP-1; format: cell-based, human; conditions: Homo sapiens, THP-1, 72 h, mean ± SD of three experiments
Experimental: as §3, §4, §5

[4] = system: HeLa (human cervical adenocarcinoma); conditions: previously published result, ref [18]; cited from earlier work
[5] = system: CaCo-2 (human colorectal adenocarcinoma); conditions: previously published result, ref [18]; cited from earlier work
[6] = system: HL-60 (acute promyelocytic leukemia); experiment: Antiproliferative MTT assay, HL-60; format: cell-based, human; conditions: Homo sapiens, HL-60, 72 h, mean ± SD of three experiments
Experimental: as §3, §4, §5

[7] = system: P. falciparum 3D7 (CQ-susceptible), erythrocytic stage; experiment: Antiplasmodial HRP2 assay, Pf3D7; format: cell-based, Plasmodium falciparum; conditions: Plasmodium falciparum, 3D7, 72 h; chloroquine-sensitive strain, three days incubation, HRP2-ELISA, mean ± SD, n ≥ 2; read-out: IC50 Pf3D7
Experimental: as §1, §2

[8] = system: HeLa (human cervical adenocarcinoma); experiment: Antiproliferative MTT assay, HeLa; format: cell-based; conditions: Homo sapiens, HeLa, 72 h, mean ± SD of three experiments
Experimental: as §3, §4, §5

[9] = system: CaCo-2 (human colorectal adenocarcinoma); experiment: Antiproliferative MTT assay, CaCo-2; format: cell-based; conditions: Homo sapiens, Caco-2, 72 h, mean ± SD of three experiments
Experimental: as §3, §4, §5

Compound	IC50 [1] [nM]	IC50 [2] [nM]	IC50 (HuT78 (T-cell lymphoma)) [nM]	IC50 [3] [nM]	IC50 [4] [nM]	IC50 [5] [nM]	IC50 [6] [nM]	IC50 [7] [nM]	melting point	IC50 [8] [nM]	IC50 [9] [nM]
N=C(NC1CCCC1)c1ccc2nc(-c3ccc(OCCNc4ccnc5cc(Cl)ccc45)cc3)[nH]c2c1 [Compound 10d]	36.9 ± 17.7	99200 ± 8300	92000 ± 6100	> 100000	> 100000	> 100000	> 100000	58.5 ± 5.9	–	–	–
COc1ccc2nc(-c3ccc(OCCNc4ccnc5cc(Cl)ccc45)c(Br)c3)[nH]c2c1 [Compound 11c, N-{[2-bromo-4-(5(6)-methoxy-1H-benzo[d]imidazole-2-yl)phenoxy]ethyl}-7-chloroquinolin-4-amine]	28 ± 0.6	5300 ± 2400	3000 ± 1100	3500 ± 7300	–	–	2200 ± 400	19.7 ± 4.2	208 to 210 °C	2500 ± 400	1500 ± 300
COc1cc(-c2nc3ccccc3[nH]2)ccc1OCCNc1ccnc2cc(Cl)ccc12 [Compound 12a, N-{[4-(1H-benzo[d]imidazole-2-yl)-2-methoxyphenoxy]ethyl}-7-chloroquinolin-4-amine]	91.2 ± 9.5	3800 ± 400	4200 ± 2100	3000 ± 600	–	–	2000 ± 300	14.5 ± 4	210 to 212 °C	2200 ± 100	2000 ± 300
COc1cc(-c2nc3ccc(Cl)cc3[nH]2)ccc1OCCNc1ccnc2cc(Cl)ccc12 [Compound 12b, 7-chloro-N-{[4-(5(6)-chloro-benzo[d]imidazole-2-yl)-2-methoxyphenoxy]ethyl}quinolin-4-amine]	21.5 ± 2.5	3000 ± 1600	3700 ± 5200	6100 ± 6900	–	–	3300 ± 1100	11.1 ± 0.3	222 °C	5600 ± 1300	4700 ± 4000
COc1ccc2nc(-c3ccc(OCCNc4ccnc5cc(Cl)ccc45)c(OC)c3)[nH]c2c1 [Compound 12c, 7-chloro-N-{[4-(5(6)-methoxy-benzo[d]imidazole-2-yl)-2-methoxyphenoxy]ethyl}quinolin-4-amine]	15.4 ± 2	1100 ± 800	2400 ± 1100	3100 ± 800	–	–	200	9.7 ± 0.2	218 to 219 °C	2700 ± 200	2100 ± 300
Clc1ccc2c(NCCCOc3ccc(-c4nc5ccccc5[nH]4)cc3)ccnc2c1 [Compound 13a]	4.8 ± 0.3	300 ± 200	1600 ± 800	3000 ± 800	–	–	400 ± 200	2.6 ± 0.7	200 to 202 °C	3000 ± 2300	1100 ± 400
Clc1ccc2c(NCCCOc3ccc(-c4nc5ccc(Cl)cc5[nH]4)cc3)ccnc2c1 [Compound 13b]	3.9 ± 1.1	400 ± 100	300 ± 200	2100 ± 700	–	–	200 ± 100	2.4 ± 1.4	198 to 200 °C	600 ± 100	1600 ± 400
COc1ccc2nc(-c3ccc(OCCCNc4ccnc5cc(Cl)ccc45)cc3)[nH]c2c1 [Compound 13c]	11.9 ± 1.6	2700 ± 500	1100 ± 500	2600	–	–	300 ± 200	12.8 ± 0.5	212 °C (dec.)	200 ± 200	1000 ± 500
Clc1ccc2c(NCCCOc3ccc(-c4nc5ccc(Cl)cc5[nH]4)cc3Br)ccnc2c1 [Compound 14b, N-{[2-bromo-4-(5(6)-chloro-1H-benzo[d]imidazole-2-yl)phenoxy]propyl}-7-chloroquinolin-4-amine]	14.2 ± 1.2	2000 ± 1800	900 ± 600	6800 ± 3500	–	–	400 ± 100	5 ± 1.4	219 to 221 °C	1500 ± 1000	1500 ± 1100
COc1ccc2nc(-c3ccc(OCCCNc4ccnc5cc(Cl)ccc45)c(Br)c3)[nH]c2c1 [Compound 14c, N-{[2-bromo-4-(5(6)-methoxy-1H-benzo[d]imidazole-2-yl)phenoxy]propyl}-7-chloroquinolin-4-amine]	11.8 ± 3.2	400 ± 100	600 ± 100	5200 ± 1800	–	–	300 ± 100	11.4 ± 4	230 °C (dec.)	800 ± 700	1600 ± 900
COc1cc(-c2nc3ccccc3[nH]2)ccc1OCCCNc1ccnc2cc(Cl)ccc12 [Compound 15a, N-{[4-(1H-benzo[d]imidazole-2-yl)-2-methoxyphenoxy]propyl}-7-chloroquinolin-4-amine]	11.2 ± 0.5	300 ± 100	1500 ± 300	2200 ± 500	–	–	400 ± 100	4.4 ± 0.3	179 to 181 °C	400 ± 100	800 ± 100
COc1cc(-c2nc3ccc(Cl)cc3[nH]2)ccc1OCCCNc1ccnc2cc(Cl)ccc12 [Compound 15b, 7-chloro-N-{[4-(5(6)-chloro-benzo[d]imidazole-2-yl)-2-methoxyphenoxy]propyl}quinolin-4-amine]	5.2 ± 0.5	300	700 ± 400	2500 ± 300	–	–	200 ± 100	4.7 ± 1.5	190 to 192 °C	300 ± 100	1100 ± 600
COc1ccc2nc(-c3ccc(OCCCNc4ccnc5cc(Cl)ccc45)c(OC)c3)[nH]c2c1 [Compound 15c, 7-chloro-N-{[4-(5(6)-methoxy-benzo[d]imidazole-2-yl)-2-methoxyphenoxy]propyl}quinolin-4-amine]	16.5 ± 5.7	700 ± 600	700 ± 600	2200 ± 300	–	–	200	6.9 ± 1.7	220 °C (dec.)	1200 ± 600	1500 ± 300
